This is an account of results in patent publication US11058115B2, “Heterocycle derivatives as pesticides” (Bayer Aktiengesellschaft, priority 2017, dated 2021).

What all share (assay type): in vivo
Test [1] relates to Myzus persicae. Briefly: Myzus persicae oral test. To be noted: 120 h, after 5 days, read-out: efficacy in %. As to the method:
Myzus persicae—Oral Test [table] To produce a suitable active ingredient formulation, 1 part by weight of active ingredient is dissolved with the stated parts by weight of solvent and made up to the desired concentration with water. 50 μl of the active ingredient formulationare transferred into microtitre plates and made up to a final volume of 200 μl with 150 μl of IPL41 insect medium (33% +15% sugar). Subsequently, the plates are sealed with parafilm, which a mixed population of green peach aphids (Myzus persicae) within a second microtitre plate is able to puncture and imbibe the solution. After 5 days, the efficacy in % is determined. 100% means that all the aphids have been killed; 0% means that no aphids have been killed.

The next test concerns Rhipicephalus sanguineus. Put plainly: Rhipicephalus sanguineus in vitro contact test with adult brown dog ticks. To be noted: application rate 5 μg/cm^2 (=500 g/ha), after 48 h. Here is the method: Rhipicephalus sanguineus—In Vitro Contact Test with Adult Brown Dog Ticks For the coating of the test tubes, 9 mg of active ingredient are first dissolved in 1 ml of acetone p.a. and then diluted to the desired concentration with acetone p.a. 250 µl of the solution are distributed homogeneously on the inner walls and the base of a 25 ml glass tube by turning and rocking on an orbital shaker (rocking rotation at 30 rpm for 2 h). With 900 ppm of active ingredient solution and internal surface area 44.7 cm^2, given homogeneous distribution, an area-based dose of 5 μg/cm^2 is achieved. After the solvent has evaporated off, the tubes are populated with 5-10 adult dog ticks (Rhipicephalus sanguineus), sealed with a perforated plastic lid and incubated in a horizontal position in darkness at room temperature and ambient humidity. After 48 h, efficacy is determined. To this end, the ticks are knocked to the base of the tube and incubated on a hotplate at 45-50° C. for a maximum 5 min. Ticks which remain motionless at the base or move in such an uncoordinated manner that they cannot attempt to escape from the heat by climbing upward are considered to be dead or moribund. […] 100% efficacy means that all the ticks were dead or moribund. 0% efficacy means that no ticks were harmed.

In a further test the test system is Musca domestica. Briefly: Musca domestica test. To be noted: adult houseflies, after 2 days. As to the method:
Musca domestica Test Solvent: dimethyl sulfoxide To produce a suitable active ingredient formulation, 10 mg of active ingredient are mixed with 0.5 ml of dimethyl sulfoxide, and the concentrate is diluted with water to the desired concentration. Vessels containing a sponge treated with sugar solution and the active ingredient formulation of the desired concentration are populated with 10 adult houseflies (Musca domestica). After 2 days, the kill in % is determined. 100% means that all of the flies have been killed; 0% means that none of the flies have been killed.

Test [2] relates to Myzus persicae. Briefly: Myzus persicae spray test. To be noted: foliar, 120 h, application rate 100 g/ha, spray on Chinese cabbage leaf discs, after 5 days, read-out: efficacy in %. Here is the method:
Myzus persicae—Spray Test [table] To produce a suitable active ingredient formulation, 1 part by weight of active ingredient is dissolved with the specified parts by weight of solvent and made up to the desired concentration with water containing an emulsifier concentration of 1000 ppm. To produce further test concentrations, the formulation is diluted with emulsifier-containing water. Discs of Chinese cabbage leaves (Brassica pekinensis) infested by all stages of the green peach aphid (Myzus persicae) are sprayed with an active ingredient formulation of the desired concentration. After 5 days, the efficacy in % is determined. 100% means that all the aphids have been killed; 0% means that no aphids have been killed.

The next test concerns Tetranychus urticae. Briefly: Tetranychus urticae spray test, OP-resistant. To be noted: application rate 20 g/ha, spray on bean leaf discs, all stages, after 6 days. As to the method: Tetranychus urticae—Spray Test, OP-Resistant
(§1) To produce a suitable active ingredient formulation, 1 part by weight of active ingredient is dissolved with the specified parts by weight of solvent and made up to the desired concentration with water containing an emulsifier concentration of 1000 ppm. To produce further test concentrations, the formulation is diluted with emulsifier-containing water.
Discs of bean leaves (Phaseolus vulgaris) infested with all stages of the greenhouse red spider mite (Tetranychus urticae) are sprayed with an active ingredient formulation of the desired concentration.
After 6 days, the efficacy in % is determined. 100% means that all the spider mites have been killed; 0% means that no spider mites have been killed.

Test [3] concerns Ctenocephalides felis. Put plainly: Ctenocephalides felis oral test. To be noted: application rate 100 ppm in citrated cattle blood, adult cat fleas, after 2 days. As to the method:
Ctenocephalides felis—Oral Test Solvent: dimethyl sulfoxide To produce a suitable active ingredient formulation, 10 mg of active ingredient are mixed with 0.5 ml of dimethyl sulfoxide. Dilution with citrated cattle blood gives the desired concentration. About 20 unfed adult cat fleas (Ctenocephalides felis) are placed into a chamber which is closed at the top and bottom with gauze. A metal cylinder whose bottom end is closed with parafilm is placed onto the chamber. The cylinder contains the blood/active ingredient formulation, which can be imbibed by the fleas through the parafilm membrane. After 2 days, the kill in % is determined. 100% means that all of the fleas have been killed; 0% means that none of the fleas have been killed.

For test [4], the system named is Ctenocephalides felis. Briefly: Ctenocephalides felis in vitro contact test with adult cat fleas. To be noted: application rate 5 μg/cm^2 (=500 g/ha), after 48 h. As to the method:
Ctenocephalides felis—In Vitro Contact Tests with Adult Cat Fleas For the coating of the test tubes, 9 mg of active ingredient are first dissolved in 1 ml of acetone p.a. and then diluted to the desired concentration with acetone p.a. 250 μl of the solution are distributed homogeneously on the inner walls and the base of a 25 ml glass tube by turning and rocking on an orbital shaker (rocking rotation at 30 rpm for 2 h). With 900 ppm of active ingredient solution and internal surface area 44.7 cm^2, given homogeneous distribution, an area-based dose of 5 μg/cm^2 is achieved. After the solvent has evaporated off, the tubes are populated with 5-10 adult cat fleas (Ctenocephalides felis), sealed with a perforated plastic lid and incubated in a horizontal position at room temperature and ambient humidity. After 48 h, efficacy is determined. To this end, the tubes are stood upright and the fleas are knocked to the base of the tube. Fleas which remain motionless at the base or move in an uncoordinated manner are considered to be dead or moribund. […] 100% efficacy means that all the fleas were dead or moribund. 0% efficacy means that no fleas were harmed.

A further test concerns Phaedon cochleariae. Put plainly: Phaedon cochleariae spray test. To be noted: foliar, 168 h, application rate 100 g/ha, spray on Chinese cabbage leaf discs, larvae, after 7 days, read-out: efficacy in %. As to the method: Phaedon cochleariae—Spray Test
as §1
Discs of Chinese cabbage leaves (Brassica pekinensis) are sprayed with an active ingredient formulation of the desired concentration and, after drying, populated with larvae of the mustard beetle (Phaedon cochleariae).
After 7 days, the efficacy in % is determined. 100% means that all the beetle larvae have been killed; 0% means that no beetle larvae have been killed.

Another test has as its system Lucilia cuprina. Put plainly: Lucilia cuprina test. To be noted: application rate 100 ppm, L1 larvae, after 2 days. Here is the method:
Lucilia cuprina Test Solvent: dimethyl sulfoxide To produce a suitable active ingredient formulation, 10 mg of active ingredient are mixed with 0.5 ml of dimethyl sulfoxide, and the concentrate is diluted with water to the desired concentration. About 20 L1 larvae of the Australian sheep blowfly (Lucilia cuprina) are transferred into a test vessel containing minced horsemeat and the active ingredient formulation of the desired concentration. After 2 days, the kill in % is determined. 100% means that all the larvae have been killed; 0% means that no larvae have been killed.

Another test deals with Spodoptera frugiperda. Put plainly: Spodoptera frugiperda spray test. To be noted: application rate 100 g/ha, spray on maize leaf discs, caterpillars, after 7 days. Here is the method: Spodoptera frugiperda—Spray Test [table] To produce a suitable active ingredient formulation, 1 part by weight of active ingredient is dissolved with the specified parts by weight of solvent and made up to the desired concentration with water containing an emulsifier concentration of 1000 ppm. To produce further test concentrations, the formulation is diluted with emulsifier-containing water. Leaf discs of maize (Zea mays) are sprayed with an active ingredient formulation of the desired concentration and, after drying, populated with caterpillars of the armyworm (Spodoptera frugiperda). After 7 days, the efficacy in % is determined. 100% means that all the caterpillars have been killed; 0% means that no caterpillar has been killed.

Structures are written as SMILES.

Take `CCS(=O)(=O)c1c(-c2nc3cc(C(F)(F)F)cnc3n2C)nc(C2CC2)n1C` [Example I-2, 2-[2-Cyclopropyl-5-(ethylsulfonyl)-1-methyl-1H-imidazol-4-yl]-3-methyl-6-(trifluoromethyl)-3H-imidazo[4,5-b]pyridine]: the pest or weed control at 0.8 ppm in the test on Myzus persicae [1] (application rate 0.8 ppm) is 100%. For the same molecule, in the test on Myzus persicae [1] (application rate 4 ppm), the pest or weed control at 4 ppm turned out to be 100%. In addition, the pest or weed control at 20 ppm with Myzus persicae [1] (application rate 20 ppm) worked out at 100%. In addition, the “efficacy (ticks dead or moribund)” value in the test with Rhipicephalus sanguineus is 100%. Besides, the “efficacy (kill in %)” value in the test with Musca domestica (application rate 20 ppm) is 90%; in the test on Musca domestica (application rate 100 ppm) it was 80%; in the test on Ctenocephalides felis [3] it was 100%; in the test on Lucilia cuprina it was 100%. In addition, the pest or weed control at 100 g/ha is 90% in the test with Myzus persicae [2] and 100% with Phaedon cochleariae. In addition, the efficacy in % was 90% in the test with Tetranychus urticae and 100% in the test on Spodoptera frugiperda. In the test on Ctenocephalides felis [4], the “efficacy (fleas dead or moribund)” value came out at 100%.
